From patent US9980943B2, “Methods of treating muscular dystrophy” (BOARD OF REGENTS OF THE NEVADA SYSTEM OF HIGHER EDUCATION, …, priority 2013, dated 2018)
Read-outs that look alike come from different tables or passages of the source.

Tested on: α7 integrin (LacZ reporter in α7LacZ+/− myoblasts)
Experiment: qHTS of the LOPAC library and MLSMR (online screen, α7LacZ+/− myoblasts)
Conditions: for activation at 0.307 µM / activation at 1.53 µM / activation at 7.66 µM / activation at 38.3 µM / Emax / EC50: Mus musculus, Myoblast; for activation at 0.307 µM: read-out: Activity at 0.307 uM [%] **; for activation at 1.53 µM: read-out: Activity at 1.530 uM [%] **; for activation at 7.66 µM: read-out: Activity at 7.660 uM [%] **; for activation at 38.3 µM: read-out: Activity at 38.30uM [%] **; for EC50: read-out: Fit LogAC50 (converted)
[1] = 48 h, read-out: Fit Infinite Activity [%]

Description: A total of 250 α7LacZ^+/− myoblasts at passage 13 were dispensed using a multidrop (Thermo) into black low base tissue culture treated microclear aurora plates in 6 μl media containing DMEM without phenol, 5% FBS, 1× GluMax and 1× Penicillin/Streptomycin. […] Compounds were then dispensed using a Kalypsys pintool to deliver 23 nl/well compounds in DMSO (diluted into 6 μl resulting in a 1:260 dilution of compound). […] After incubation with compound, 5 μl of the media was aspirated using the Kalypsys washer/dispenser and 3 μl of the Mammalian Protein Extraction Reagent (MPER) lysis buffer (Thermo Fisher) was added. […] The plates were then incubated for 10 minutes at room temperature.
The assay was adapted for a high-throughput screen with the fully automated Kalypsys robotic system using 1536 well plates at NCGC.

Q: How did the activation at 0.307 µM (48 h) turn out when `CCCOc1nc(SCCC)nc2c1cnn2-c1ccccc1` [Compound 178] was run?
A: -21.2%

Q: What about the activation at 1.53 µM (48 h) of the same compound?
A: -11.3%

Q: And the activation at 7.66 µM (48 h)?
A: 18.9%

Q: And the activation at 38.3 µM (48 h)?
A: 64.3%

Q: What about the Emax [1] of the same compound?
A: 85.3%

Q: What about the Emax (read-out: Max Response [%]) of the same compound?
A: 64.3%

Q: How did the activation at 0.307 µM (48 h) turn out when `COc1ccc(O)c(/C=N/NC(=O)c2cc(O)nc3ccccc23)c1` [Compound 179] was run?
A: -35.4%

Q: And the activation at 1.53 µM (48 h)?
A: -32.2%

Q: What about the activation at 7.66 µM (48 h) of the same compound?
A: 20.9%

Q: What about the activation at 38.3 µM (48 h) of the same compound?
A: 46.8%

Q: What about the Emax [1] of the same compound?
A: 48.4%

Q: What about the Emax (read-out: Max Response [%]) of the same compound?
A: 46.8%

Q: How did the activation at 0.307 µM (48 h) turn out when `CCOc1ccc(NC(=O)CN2C(=O)NC(CCSC)C2=O)cc1` (stereo not drawn) [Compound 180] was run?
A: 0%

Q: What about the activation at 1.53 µM (48 h) of the same compound?
A: -2.4%

Q: And the activation at 7.66 µM (48 h)?
A: 21.3%

Q: And the activation at 38.3 µM (48 h)?
A: 75.1%

Q: What about the Emax [1] of the same compound?
A: 76.1%

Q: And the EC50?
A: 10 µM

Q: And the Emax (read-out: Max Response [%])?
A: 75.1%

Q: What does the source list for `COc1ccc(C(=O)CN2CCCCC2)cc1` [Compound 181]?
A: activation at 0.307 µM (48 h): 12.4%; activation at 1.53 µM (48 h): 12.9%; activation at 7.66 µM (48 h): 18.9%; activation at 38.3 µM (48 h): 92.8%; Emax [1]: 93%; Emax (read-out: Max Response [%]): 92.8%

Q: Which activation at 0.307 µM (48 h) does the source give for `CNP(=O)(Oc1ccccc1)OC12CC3CC(CC(C3)C1)C2` (stereo not drawn) [Compound 182] here?
A: 0%

Q: And the activation at 1.53 µM (48 h)?
A: 0%

Q: And the activation at 7.66 µM (48 h)?
A: 34.7%

Q: And the activation at 38.3 µM (48 h)?
A: 93.6%

Q: What about the Emax [1] of the same compound?
A: 98.2%

Q: What about the EC50 of the same compound?
A: 10 µM

Q: And the Emax (read-out: Max Response [%])?
A: 93.6%

Q: How did the activation at 0.307 µM (48 h) turn out when `O=C(CCc1ccccc1)c1nnc(-c2ccccc2)o1` [Compound 183] was run?
A: 0%

Q: What about the activation at 1.53 µM (48 h) of the same compound?
A: 2.03%

Q: And the activation at 7.66 µM (48 h)?
A: 24.4%

Q: What about the activation at 38.3 µM (48 h) of the same compound?
A: 99.5%

Q: And the Emax [1]?
A: 99.7%

Q: What about the EC50 of the same compound?
A: 10 µM

Q: What about the Emax (read-out: Max Response [%]) of the same compound?
A: 99.5%

Q: Which results are given for `COc1ccc(CNC(=O)COC(=O)CCc2c[nH]c3ccccc23)cc1` [Compound 184]?
A: activation at 0.307 µM (48 h): 0%; activation at 1.53 µM (48 h): -0.551%; activation at 7.66 µM (48 h): 26%; activation at 38.3 µM (48 h): 83.9%; Emax [1]: 85.5%; EC50: 10 µM; Emax (read-out: Max Response [%]): 83.9%

Q: Which activation at 0.307 µM (48 h) does the source give for `COc1ccccc1OCC(=O)N/N=C1/C=C(C)CC1` [Compound 185] here?
A: -21.6%

Q: What about the activation at 1.53 µM (48 h) of the same compound?
A: -24%

Q: And the activation at 7.66 µM (48 h)?
A: 0%

Q: What about the activation at 38.3 µM (48 h) of the same compound?
A: 94.5%

Q: What about the Emax [1] of the same compound?
A: 94.2%

Q: What about the EC50 of the same compound?
A: 10 µM

Q: What about the Emax (read-out: Max Response [%]) of the same compound?
A: 94.5%

Q: For `CC(C(=O)Nc1ccc(C#N)cc1)N(C)CC(=O)Nc1cccc(F)c1` (stereo not drawn) [Compound 186], which activation at 0.307 µM (48 h) is on record?
A: -37.2%

Q: What about the activation at 1.53 µM (48 h) of the same compound?
A: -17.7%

Q: What about the activation at 7.66 µM (48 h) of the same compound?
A: 15.1%

Q: What about the activation at 38.3 µM (48 h) of the same compound?
A: 37.2%

Q: And the Emax [1]?
A: 48%

Q: What about the Emax (read-out: Max Response [%]) of the same compound?
A: 37.2%

Q: For `COC(=O)C1SCC2C(=O)N(Cc3ccc(F)cc3)CC(=O)N21` (stereo not drawn) [Compound 187], which activation at 0.307 µM (48 h) is on record?
A: -53.6%

Q: And the activation at 1.53 µM (48 h)?
A: -42.4%

Q: And the activation at 7.66 µM (48 h)?
A: -1.79%

Q: And the activation at 38.3 µM (48 h)?
A: 51.5%

Q: What about the Emax [1] of the same compound?
A: 65.7%

Q: And the Emax (read-out: Max Response [%])?
A: 51.5%

Q: What does the source list for `COc1ccc(-c2cc(COc3ccccc3)on2)cc1` [Compound 188]?
A: activation at 0.307 µM (48 h): 0%; activation at 1.53 µM (48 h): 0.795%; activation at 7.66 µM (48 h): 20%; activation at 38.3 µM (48 h): 88.1%; Emax [1]: 88.2%; EC50: 10 µM; Emax (read-out: Max Response [%]): 88.1%

Q: Which activation at 0.307 µM (48 h) does the source give for `Sc1nnc(Cn2cnc3ccccc32)n1-c1ccccc1` [Compound 189] here?
A: 13.1%

Q: And the activation at 1.53 µM (48 h)?
A: 23.7%

Q: And the activation at 7.66 µM (48 h)?
A: 44%

Q: What about the activation at 38.3 µM (48 h) of the same compound?
A: 66.7%

Q: What about the Emax [1] of the same compound?
A: 84.6%

Q: What about the Emax (read-out: Max Response [%]) of the same compound?
A: 66.7%

Q: With `CN(C#N)c1nccc(-c2cccs2)n1` [Compound 190] as the compound, how does the activation at 0.307 µM (48 h) read?
A: -30.5%

Q: What about the activation at 1.53 µM (48 h) of the same compound?
A: -25.3%

Q: What about the activation at 7.66 µM (48 h) of the same compound?
A: 6.31%

Q: And the activation at 38.3 µM (48 h)?
A: 79.6%

Q: What about the Emax [1] of the same compound?
A: 87.5%

Q: What about the Emax (read-out: Max Response [%]) of the same compound?
A: 79.6%

Q: What does the source list for `O=Cc1cnc(N2CCCCC2)s1` [Compound 191]?
A: activation at 0.307 µM (48 h): -18.1%; activation at 1.53 µM (48 h): -20%; activation at 7.66 µM (48 h): -4.2%; activation at 38.3 µM (48 h): 96%; Emax [1]: 96.3%; Emax (read-out: Max Response [%]): 96%

Q: Which activation at 0.307 µM (48 h) does the source give for `Nc1nccc(-c2ccc(-n3cnc4ccccc43)cc2)n1` [Compound 192] here?
A: 0.89%

Q: And the activation at 1.53 µM (48 h)?
A: 2.96%

Q: And the activation at 7.66 µM (48 h)?
A: 15.9%

Q: What about the activation at 38.3 µM (48 h) of the same compound?
A: 76.1%

Q: What about the Emax [1] of the same compound?
A: 76.5%

Q: What about the Emax (read-out: Max Response [%]) of the same compound?
A: 76.1%

Q: `COc1cc2c(cc1OC)C(NC(=O)C(F)(F)F)C/C2=N\O` (stereo not drawn) [Compound 193] was tested. Which activation at 0.307 µM (48 h) did it give?
A: 3.74%

Q: What about the activation at 1.53 µM (48 h) of the same compound?
A: 2%

Q: And the activation at 7.66 µM (48 h)?
A: 17.9%

Q: What about the activation at 38.3 µM (48 h) of the same compound?
A: 91.5%

Q: What about the Emax [1] of the same compound?
A: 92.3%

Q: And the Emax (read-out: Max Response [%])?
A: 91.5%

Q: How did the Score turn out when `COc1ccc(N2CCN(CCC3Oc4cc([N+](=O)[O-])ccc4NC3=O)CC2)cc1` (stereo not drawn) [Compound 194] was run?
A: 42

Q: And the activation at 0.307 µM (48 h)?
A: -2.43%

Q: And the activation at 1.53 µM (48 h)?
A: 0%

Q: What about the activation at 7.66 µM (48 h) of the same compound?
A: 30.6%

Q: And the activation at 38.3 µM (48 h)?
A: 68%

Q: And the Emax [1]?
A: 73.9%

Q: And the EC50?
A: 8.91 µM

Q: What about the Emax (read-out: Max Response [%]) of the same compound?
A: 68%

Q: How did the activation at 0.307 µM (48 h) turn out when `N#Cc1ccc(OCC(O)CS(=O)(=O)c2ccccc2)cc1` (stereo not drawn) [Compound 195] was run?
A: -7.88%

Q: And the activation at 1.53 µM (48 h)?
A: -12%

Q: And the activation at 7.66 µM (48 h)?
A: 15.3%

Q: And the activation at 38.3 µM (48 h)?
A: 89.4%

Q: What about the Emax [1] of the same compound?
A: 89.6%

Q: And the EC50?
A: 10 µM

Q: And the Emax (read-out: Max Response [%])?
A: 89.4%
